Article PMC10541198, “Specific quinone reductase 2 inhibitors reduce metabolic burden and reverse Alzheimer’s disease phenotype in mice” (The Journal of Clinical Investigation, 2023)
Values joined by “and” are separate entries in the source; they are usually repeats but may differ in a detail not shown here. Equal values may be shown once.

Tests used:
Assay type in all cases: cell-based
QR2 expressed in HEK293T = molecular target: T1, QR2 expressed in HEK293T (Homo sapiens, UniProt P16083); assay: Cellular thermal shift assay (CETSA; Tagg curves and ITDRF); conditions: 73°C; for QR2 stabilization signal, ITDRF (replicates): log[Inhibitor]
T1 construct: endogenous in cells; host or cells: HEK293T
T1 sequence (P16083 1-231): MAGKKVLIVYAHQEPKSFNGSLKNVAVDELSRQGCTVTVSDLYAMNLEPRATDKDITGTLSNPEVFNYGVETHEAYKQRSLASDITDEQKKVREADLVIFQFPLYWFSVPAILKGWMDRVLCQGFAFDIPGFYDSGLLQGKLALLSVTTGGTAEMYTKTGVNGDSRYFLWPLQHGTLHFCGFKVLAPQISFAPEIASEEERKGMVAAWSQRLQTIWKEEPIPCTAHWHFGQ
Description: (§1) To establish direct target engagement and cell membrane permeability, a cellular thermal shift assay (CETSA) was carried out, using leading QR2is YB’s-537, 800, and 808. Following a 1 hour preincubation with 5 μM of the QR2is or vehicle, thermal aggregation curves (Taggs) of QR2 expressed in HEK293T were measured in increasing temperatures. All QR2is increased QR2 thermal stability compared with vehicle (Supplemental Figure 2A). Based on the Tagg curves we selected 73°C for isothermal dose-response fingerprint (IDTRF) experiments (Supplemental Figure 2B). The ITDRF allowed the relative quantification of the binding of each of the QR2is to QR2, measured as the EC50 (Figure 3A). […] We evaluated the safety of the QR2is using cell toxicity and viability assays. […] Cell viability was assessed by XTT assay in HEK239T cells, using a dose response, with 3- or 24-hour incubations of the leading QR2is. No sign of toxicity was seen (Figure 3C). Next, we wanted to assess if, similar to QR2 KO, QR2is can reduce cellular ROS in HCT116 cells and see whether any observable effect is occluded in QR2Δ cells. […] We then assessed WT HCT116 cells by immunoblot (Supplemental Figure 2, C and D), after being treated with YB-800 (2 μM) for 4 consecutive days.
(§2) H2DCFDA ROS assay was carried out according to established protocols, with some adjustment (Supplemental Methods) ([6]). Cell toxicity was measured via ATP depletion (CellTiter Glo, Promega) in THLE-2 cells (ATCC, CRL-2706), following 72 hours of exposure to the test compounds, and cell viability was assessed using XTT assay (Biological Industries) according to manufacturers protocols. CETSA was performed as previously described ([53]) with some modifications, using QR2 (Santa Cruz, sc-271665) and SOD1 (Santa Cruz, sc-17767) antibodies. SDS-PAGE and immunoblot imaging were carried out as previously described ([55]), using Tubulin (Sigma-Aldrich, SAB4500087), QR2 (Santa Cruz, sc-271665), NDUFA9 (AbCam, ab14713) and CD73 (Cell Signaling Technology, D7F9A) antibodies. […]
(§3) HEK293FT cells were cultured with penicillin- streptomycin antibiotics in Invitrogen DMEM (Thermo
(§4) Fisher Scientific) with 10% fetal bovine serum a nd L -glutamine, and grown to 80-90% confluence in 100
mm plates, while being passaged every 2–3 d. […]
Cellular The rm a l Shift Assay (CETSA)
The CETSA assay was performed as described(54) with some modifications. Bri efl y, HEK293T cel ls wer e
trypsinized (Biological Indust ri es), washed in PBS (Sigma-Aldrich) and then suspended in PBS containing
protease inhibitor cocktail (Roche). The suspended cells were then divided into two Eppendorf tubes and
were treated with either compound or DMSO (Sigma-Aldrich) for 1h at 37 °C with shaking. Following
treatment, each sample was divided into PCR tubes (100µL/tube) and subjected to a temperature gradient
(ranging fr om 63 to 80 °C) for 3 minutes. Cell lysates we r e obtained by 3- cycles of freeze- t ha w using li qui d
nitrogen and a thermal bl ock set to 25 °C. Samples were then centrifuged at 15,000rpm at 4 °C f or 20min a nd
were subsequently analyzed by Western Blot of QR2 (1:100, Santa Cruz; sc-271665). The isothermal
concentration response fingerprint (ITDRF) experiments were done using a constant temperature of 73 °C.
Band intensities were normalized to the highest concentration and SOD1 levels (1:200, Santa Cruz; sc -
(§5) 17767). Analysis of the results wer e done in accordance to Jafari et a l .( 63) us i ng GraphPad Pr i sm software.

HEK293 cells = assay: XTT cell viability assay; conditions: in % (unit assumed)
Description: as §1, §2, §3, §4
mm plates, while being passaged every 2–3 d. For the XTT assay (Biological Industries), cells were then
collected, centrifuged, and resuspended in fresh Minimum Essential Medium, and seeded at 50,000
cells/well in 96-well, poly- L-lysine-coated Nunc black, clear flat-bottomed plates (Thermo Fisher
Scientific). The next day, the cells were treated with increasing doses of QR2 inhibitors or vehicle f or 3 h,
and the XTT assay was then carried out as per the manufacturer’s instructions.
(§6) Cellular The rm a l Shift Assay (CETSA) […]
as §5

THLE-2 cells = assay: ATP depletion cell toxicity assay (CellTiter Glo), 72 h; conditions: for cell viability, Cell-Titer-Glo (replicates): THLE2, 72 hour, in % (unit assumed)
Description: H2DCFDA ROS assay was carried out according to established protocols, with some adjustment (Supplemental Methods) ([6]). Cell toxicity was measured via ATP depletion (CellTiter Glo, Promega) in THLE-2 cells (ATCC, CRL-2706), following 72 hours of exposure to the test compounds, and cell viability was assessed using XTT assay (Biological Industries) according to manufacturers protocols. CETSA was performed as previously described ([53]) with some modifications, using QR2 (Santa Cruz, sc-271665) and SOD1 (Santa Cruz, sc-17767) antibodies. SDS-PAGE and immunoblot imaging were carried out as previously described ([55]), using Tubulin (Sigma-Aldrich, SAB4500087), QR2 (Santa Cruz, sc-271665), NDUFA9 (AbCam, ab14713) and CD73 (Cell Signaling Technology, D7F9A) antibodies.
with a 100 µM as upper limit, for 72 h. […]
as §6, §5

## Cc1ccc(-c2cn3cccc(C)c3n2)cc1S(=O)(=O)N1CCCC1 [YB-808]
QR2 expressed in HEK293T; n = 3, read-out: EC50, isothermal dose-response of QR2 stabilization
  EC50: 13 nM
QR2 expressed in HEK293T; M -5
  QR2 stabilization signal, ITDRF (replicates): 11691 and 8388 and 13855
QR2 expressed in HEK293T; M -5.6
  QR2 stabilization signal, ITDRF (replicates): 12608 and 8899 and 18621
QR2 expressed in HEK293T; M -5.9
  QR2 stabilization signal, ITDRF (replicates): 7977 and 16388
QR2 expressed in HEK293T; M -6.2
  QR2 stabilization signal, ITDRF (replicates): 13431 and 8528 and 16152
QR2 expressed in HEK293T; M -6.5
  QR2 stabilization signal, ITDRF (replicates): 13807 and 8233 and 15986
QR2 expressed in HEK293T; M -6.8
  QR2 stabilization signal, ITDRF (replicates): 13304 and 17220
QR2 expressed in HEK293T; M -7.1
  QR2 stabilization signal, ITDRF (replicates): 11995 and 8077 and 17779
QR2 expressed in HEK293T; M -7.4
  QR2 stabilization signal, ITDRF (replicates): 9109 and 4692 and 13840
QR2 expressed in HEK293T; M -7.7
  QR2 stabilization signal, ITDRF (replicates): 6837 and 3416 and 9444
QR2 expressed in HEK293T; M -8
  QR2 stabilization signal, ITDRF (replicates): 2555 and 1788 and 4021
QR2 expressed in HEK293T; M -9
  QR2 stabilization signal, ITDRF (replicates): 121 and 492 and 263
HEK293 cells; 3h, inhibitor 2e-8 M
  cell viability, XTT (replicates): 99.9 and 101.4 and 100.9 and 104.5
HEK293 cells; 3h, inhibitor 2e-7 M
  cell viability, XTT (replicates): 95.8 and 94.0 and 100.4 and 100.6
HEK293 cells; 3h, inhibitor 2e-6 M
  cell viability, XTT (replicates): 96.9 and 89.9 and 98.4 and 94.4
HEK293 cells; 3h, inhibitor 2e-5 M
  cell viability, XTT (replicates): 97.3 and 87.1 and 95.7 and 85.1
HEK293 cells; 24h, inhibitor 2e-8 M
  cell viability, XTT (replicates): 106.1 and 99.4 and 100.6
HEK293 cells; 24h, inhibitor 2e-7 M
  cell viability, XTT (replicates): 106.1 and 98.5 and 96.2
HEK293 cells; 24h, inhibitor 2e-6 M
  cell viability, XTT (replicates): 103.5 and 93.6 and 93.8
HEK293 cells; 24h, inhibitor 2e-5 M
  cell viability, XTT (replicates): 95.3 and 93.6 and 96.9
THLE-2 cells; inhibitor 3.9e-7 M
  cell viability, Cell-Titer-Glo (replicates): 96.4 and 99.1
THLE-2 cells; inhibitor 7.8e-7 M
  cell viability, Cell-Titer-Glo (replicates): 91.2 and 88.9
THLE-2 cells; inhibitor 1.5625e-6 M
  cell viability, Cell-Titer-Glo (replicates): 98.0 and 97.5
THLE-2 cells; inhibitor 3.125e-6 M
  cell viability, Cell-Titer-Glo (replicates): 92.2 and 93.9
THLE-2 cells; inhibitor 6.25e-6 M
  cell viability, Cell-Titer-Glo (replicates): 94.7 and 93.5
THLE-2 cells; inhibitor 1.25e-5 M
  cell viability, Cell-Titer-Glo (replicates): 90.2 and 79.5
THLE-2 cells; inhibitor 2.5e-5 M
  cell viability, Cell-Titer-Glo (replicates): 79.2 and 86.7
THLE-2 cells; inhibitor 5e-5 M
  cell viability, Cell-Titer-Glo (replicates): 66.4 and 67.9
THLE-2 cells; inhibitor 0.0001 M
  cell viability, Cell-Titer-Glo (replicates): 22.2 and 20.2
THLE-2 cells; THLE2 cells, 72 hour incubation
  LD50, cell viability (Cell-Titer-Glo): 59.704 µM
